Reference: PubChem BioAssay (NCI)
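Interpolation was linear, between the two tested concentrations surrounding the appropriate level; five concentrations were tested over 48 hours in 96-well plates. The concentration for full growth arrest is given as TGI.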

Assays:
Assay in all cases: NCI tumour cell line growth inhibition, 48 h
[1] = tested on: 786-0 renal
[2] = tested on: A498 renal
[3] = tested on: ACHN renal
[4] = tested on: BT-549 breast
[5] = tested on: CAKI-1 renal
[6] = tested on: COLO 205 colon
[7] = tested on: DU-145 prostate
[8] = tested on: EKVX NSCLC
[9] = tested on: HCC-2998 colon
[10] = tested on: HCT-116 colon
[11] = tested on: HCT-15 colon
[12] = tested on: HL-60(TB) leukemia
[13] = tested on: HOP-62 NSCLC
[14] = tested on: HS 578T breast
[15] = tested on: HT29 colon
[16] = tested on: IGROV1 ovarian
[17] = tested on: K-562 leukemia
[18] = tested on: KM12 colon
[19] = tested on: LOX IMVI melanoma
[20] = tested on: MALME-3M melanoma
[21] = tested on: MCF7 breast
[22] = tested on: MDA-MB-231 breast
[23] = tested on: MDA-MB-435
[24] = tested on: MDA-N
[25] = tested on: MOLT-4 leukemia
[26] = tested on: NCI-H226 lung
[27] = tested on: NCI-H23 lung
[28] = tested on: NCI-H460 lung
[29] = tested on: NCI-H522 lung
[30] = tested on: NCI/ADR-RES ovarian
[31] = tested on: OVCAR-3 ovarian
[32] = tested on: OVCAR-4 ovarian
[33] = tested on: OVCAR-5 ovarian
[34] = tested on: OVCAR-8 ovarian
[35] = tested on: PC-3 prostate
[36] = tested on: RXF 393 renal
[37] = tested on: SF-268 CNS
[38] = tested on: SF-295 CNS
[39] = tested on: SK-MEL-2 melanoma
[40] = tested on: SK-MEL-28 melanoma
[41] = tested on: SK-MEL-5 melanoma
[42] = tested on: SN12C renal
[43] = tested on: SNB-19 CNS
[44] = tested on: SNB-75 CNS
[45] = tested on: SR leukemia
[46] = tested on: SW-620 colon
[47] = tested on: TK-10 renal
[48] = tested on: U251 CNS
[49] = tested on: UACC-257 melanoma
[50] = tested on: UACC-62 melanoma
[51] = tested on: UO-31 renal
[52] = tested on: A549 NSCLC
[53] = tested on: CCRF-CEM leukemia
[54] = tested on: HOP-92 NSCLC
[55] = tested on: M14 melanoma
[56] = tested on: SF-539 CNS
[57] = tested on: SK-OV-3 ovarian
[58] = tested on: RPMI-8226 leukemia

COc1ccc(Nc2nc3cc(C(F)(F)F)ccc3nc2C(=O)O)cc1
TGI [1]: 43.9 µM
TGI [2]: 35 µM
TGI [3]: > 100 µM
TGI [4]: 29.2 µM
TGI [5]: > 100 µM
TGI [6]: 46.7 µM
TGI [7]: > 100 µM
TGI [8]: 67.5 µM
TGI [9]: 31.9 µM
TGI [10]: 33.5 µM
TGI [11]: 39 µM
TGI [12]: 83.6 µM
TGI [13]: 30.4 µM
TGI [14]: 55.5 µM
TGI [15]: > 100 µM
TGI [16]: 90.2 µM
TGI [17]: 44.4 µM
TGI [18]: 92.4 µM
TGI [19]: 40.8 µM
TGI [20]: 41.4 µM
TGI [21]: 51.7 µM
TGI [22]: > 100 µM
TGI [23]: 48.1 µM
TGI [24]: > 100 µM
TGI [25]: 28.6 µM
TGI [26]: 54.1 µM
TGI [27]: 30 µM
TGI [28]: 53.3 µM
TGI [29]: 30 µM
TGI [30]: 61 µM
TGI [31]: 34.1 µM
TGI [32]: > 100 µM
TGI [33]: 60.6 µM
TGI [34]: 46.7 µM
TGI [35]: 57 µM
TGI [36]: 26.8 µM
TGI [37]: 39.5 µM
TGI [38]: 35.7 µM
TGI [39]: 28 µM
TGI [40]: > 100 µM
TGI [41]: 58.5 µM
TGI [42]: > 100 µM
TGI [43]: 72.2 µM
TGI [44]: 48.3 µM
TGI [45]: 34.1 µM
TGI [46]: 77.6 µM
TGI [47]: > 100 µM
TGI [48]: 30.4 µM
TGI [49]: 50.7 µM
TGI [50]: 27.2 µM
TGI [51]: 26.5 µM

CCCCOC(=O)C(=O)C(CC(CC)C(=O)c1ccccc1)C(=O)C=C(C)C (stereo unspecified)
TGI [1]: > 100 µM
TGI [52]: > 100 µM
TGI [3]: > 100 µM
TGI [4]: > 100 µM
TGI [5]: > 100 µM
TGI [53]: > 100 µM
TGI [6]: > 100 µM
TGI [7]: > 100 µM
TGI [8]: > 100 µM
TGI [9]: > 100 µM
TGI [10]: > 100 µM
TGI [11]: > 100 µM
TGI [12]: > 100 µM
TGI [13]: > 100 µM
TGI [54]: > 100 µM
TGI [14]: > 100 µM
TGI [16]: > 100 µM
TGI [18]: > 100 µM
TGI [19]: > 100 µM
TGI [55]: > 100 µM
TGI [21]: > 100 µM
TGI [22]: > 100 µM
TGI [23]: > 100 µM
TGI [24]: > 100 µM
TGI [25]: > 100 µM
TGI [26]: > 100 µM
TGI [27]: > 100 µM
TGI [28]: > 100 µM
TGI [29]: > 100 µM
TGI [30]: > 100 µM
TGI [31]: > 100 µM
TGI [32]: > 100 µM
TGI [33]: > 100 µM
TGI [34]: > 100 µM
TGI [35]: > 100 µM
TGI [36]: > 100 µM
TGI [37]: > 100 µM
TGI [38]: > 100 µM
TGI [56]: > 100 µM
TGI [39]: > 100 µM
TGI [40]: > 100 µM
TGI [41]: > 100 µM
TGI [57]: > 100 µM
TGI [42]: > 100 µM
TGI [43]: > 100 µM
TGI [44]: > 100 µM
TGI [46]: > 100 µM
TGI [47]: > 100 µM
TGI [48]: > 100 µM
TGI [49]: > 100 µM
TGI [50]: > 100 µM
TGI [51]: > 100 µM

C=C1CCc2ccccc2C1=O
TGI [1]: > 100 µM
TGI [2]: > 100 µM
TGI [52]: > 100 µM
TGI [3]: > 100 µM
TGI [4]: > 100 µM
TGI [5]: > 100 µM
TGI [53]: > 100 µM
TGI [6]: > 100 µM
TGI [7]: > 100 µM
TGI [8]: > 100 µM
TGI [9]: > 100 µM
TGI [10]: > 100 µM
TGI [11]: > 100 µM
TGI [12]: > 100 µM
TGI [13]: > 100 µM
TGI [54]: > 100 µM
TGI [14]: > 100 µM
TGI [15]: > 100 µM
TGI [16]: > 100 µM
TGI [17]: > 100 µM
TGI [18]: > 100 µM
TGI [55]: > 100 µM
TGI [20]: > 100 µM
TGI [21]: > 100 µM
TGI [22]: > 100 µM
TGI [23]: > 100 µM
TGI [24]: > 100 µM
TGI [25]: > 100 µM
TGI [26]: > 100 µM
TGI [27]: > 100 µM
TGI [28]: > 100 µM
TGI [29]: > 100 µM
TGI [30]: > 100 µM
TGI [31]: > 100 µM
TGI [32]: > 100 µM
TGI [33]: > 100 µM
TGI [34]: > 100 µM
TGI [35]: > 100 µM
TGI [58]: > 100 µM
TGI [36]: > 100 µM
TGI [37]: > 100 µM
TGI [38]: > 100 µM
TGI [56]: > 100 µM
TGI [39]: > 100 µM
TGI [41]: > 100 µM
TGI [57]: > 100 µM
TGI [42]: > 100 µM
TGI [43]: > 100 µM
TGI [44]: > 100 µM
TGI [45]: 78.9 µM
TGI [46]: > 100 µM
TGI [47]: > 100 µM
TGI [48]: > 100 µM
TGI [49]: > 100 µM
TGI [50]: > 100 µM
TGI [51]: > 100 µM

O=c1[nH]c2[nH]c(-c3ccc(Br)cc3)cc2c2ccccc12
TGI [1]: > 100 µM
TGI [2]: > 100 µM
TGI [3]: > 100 µM
TGI [4]: > 100 µM
TGI [5]: > 100 µM
TGI [6]: > 100 µM
TGI [7]: > 100 µM
TGI [8]: > 100 µM
TGI [9]: > 100 µM
TGI [10]: > 100 µM
TGI [11]: > 100 µM
TGI [12]: 28 µM
TGI [13]: 53.9 µM
TGI [14]: 38.5 µM
TGI [15]: > 100 µM
TGI [16]: > 100 µM
TGI [17]: > 100 µM
TGI [18]: > 100 µM
TGI [20]: > 100 µM
TGI [21]: > 100 µM
TGI [22]: 44.6 µM
TGI [23]: > 100 µM
TGI [24]: > 100 µM
TGI [25]: 26.9 µM
TGI [26]: > 100 µM
TGI [27]: > 100 µM
TGI [28]: > 100 µM
TGI [29]: > 100 µM
TGI [30]: > 100 µM
TGI [31]: > 100 µM
TGI [32]: > 100 µM
TGI [33]: > 100 µM
TGI [34]: > 100 µM
TGI [35]: > 100 µM
TGI [58]: > 100 µM
TGI [36]: 47.1 µM
TGI [37]: > 100 µM
TGI [38]: > 100 µM
TGI [56]: > 100 µM
TGI [39]: > 100 µM
TGI [40]: > 100 µM
TGI [41]: > 100 µM
TGI [42]: > 100 µM
TGI [43]: > 100 µM
TGI [44]: 37.1 µM
TGI [45]: 26.9 µM
TGI [46]: > 100 µM
TGI [47]: > 100 µM
TGI [48]: 92.1 µM
TGI [49]: > 100 µM
TGI [50]: > 100 µM
TGI [51]: > 100 µM

c1ccc2c3ccn4ccc5c6ccccc6[nH]c5c4c-3nc2c1
TGI [2]: 3.02 µM
TGI [52]: 1.26 µM
TGI [3]: 2.74 µM
TGI [4]: 3.6 µM
TGI [5]: 2.93 µM
TGI [6]: 1.79 µM
TGI [7]: 2.73 µM
TGI [8]: 2.72 µM
TGI [9]: 0.879 µM
TGI [10]: 1.69 µM
TGI [11]: 1.38 µM
TGI [12]: 2.43 µM
TGI [13]: 2.76 µM
TGI [54]: 3.12 µM
TGI [14]: 5.23 µM
TGI [15]: 1.11 µM
TGI [16]: 2.83 µM
TGI [18]: 2.3 µM
TGI [19]: 0.316 µM
TGI [55]: 3.79 µM
TGI [20]: 3.06 µM
TGI [21]: 2.65 µM
TGI [22]: 1.31 µM
TGI [23]: 2.89 µM
TGI [24]: 2.69 µM
TGI [27]: 3.61 µM
TGI [28]: 0.63 µM
TGI [29]: 3.27 µM
TGI [30]: 4.27 µM
TGI [31]: 0.315 µM
TGI [32]: 0.552 µM
TGI [33]: 2.92 µM
TGI [34]: 0.638 µM
TGI [35]: 2.71 µM
TGI [38]: 3 µM
TGI [56]: 2.98 µM
TGI [39]: 3.13 µM
TGI [40]: 3.2 µM
TGI [41]: 2.8 µM
TGI [57]: 3.02 µM
TGI [42]: 2.68 µM
TGI [43]: 2.93 µM
TGI [44]: 2.98 µM
TGI [45]: 0.625 µM
TGI [46]: 0.34 µM
TGI [47]: 4.2 µM
TGI [48]: 0.0992 µM
TGI [49]: 4.25 µM
TGI [50]: 3.51 µM
TGI [51]: 2.71 µM
